Results: patent US20090163528A1, “Pharmaceutical composition having analgesic effects” (priority 2004, published 2009)
Counter-ions that a name gives are not always drawn. Like-named read-outs stand apart in the source and are kept apart here.

What was measured:
Kunming breed mice [1] = assay: Body twisting test, mixtures of fuziline and benzoylmesaconitine in different proportions (Test 7); format: in vivo; details: benzoylmesaconitine 100 mg/kg stomach perfusion
mice [2] = assay: Toxicity test of the active medical ingredients (previous acute toxicology); details: mouse, in vivo
Kunming breed mice [3] = format: in vivo
mice [4] = format: in vivo; details: Table 5
Source text: The division of animal groups, content of test drugs, dose and administration is the same as those in the body twisting test, while the contra positive is pethidine hydrochloride only.
In the course of the test, the mice show up reactions of hindleg sucking, hindleg kicking, skipping, etc; take the reaction of hindleg sucking as the pain indicator.

[5] = Toxicity test of the active medical ingredients (previous acute toxicology); details: mouse, in vivo
Kunming breed mice [6] = assay: Body twisting test, mixtures of fuziline and hypaconitine in different proportions (Test 6); format: in vivo; details: hypaconitine 1 mg/kg stomach perfusion
Kunming breed mice [7] = format: in vivo; details: mesaconitine 0.5 mg/kg stomach perfusion
[8] = Table 3, 50 mg/kg stomach perfusion
[9] = Table 3, 100 mg/kg stomach perfusion
[10] = Table 3, 200 mg/kg stomach perfusion
[11] = Table 3, 400 mg/kg stomach perfusion
[12] = Table 3, 0.5 mg/kg stomach perfusion
[13] = Table 3, 1 mg/kg stomach perfusion
[14] = Table 3, 2 mg/kg stomach perfusion
[15] = Table 3, 4 mg/kg stomach perfusion
[16] = Table 3, 0.25 mg/kg stomach perfusion

In the case of COC[C@]12CN(C)[C@H]3C4C(OC)C1C3(C(OC)CC2O)C1C[C@@]2(O)C(OC(=O)c3ccccc3)C1[C@]4(O)[C@@H](O)C2OC (stereo partly shown) [Benzoylmesaconitine, benzoylmesaconitine], the Pain suppression rate (Kunming breed mice [1]) is reported as 34.6%, the maximum tolerance dose (mice [2]) is reported as 1000 mg/kg and the “Body twisting number ( χ ± SD)” value (Kunming breed mice [3]; [8]) is reported as 27.2 ± 12.2. For the same compound, the Pain suppression rate (Kunming breed mice [3]; [8]) was 20.70%, the “Body twisting number ( χ ± SD)” value (Kunming breed mice [3]; [9]) was 27.4 ± 15.9 and the Pain suppression rate (Kunming breed mice [3]; [9]) was 20.12%. For the same compound, the “Body twisting number ( χ ± SD)” value (Kunming breed mice [3]; [10]) was 21.0 ± 15.1, the Pain suppression rate (Kunming breed mice [3]; [10]) was 38.78% and the “Body twisting number ( χ ± SD)” value (Kunming breed mice [3]; [11]) was 20.4 ± 12.9. The Pain suppression rate (Kunming breed mice [3]; [11]) was 40.52%, the “Increasing rate of threshold pain after administration ( X ± SD)” value (“Increasing rate … ( X ± SD)” below) (mice [4]; 200 mg/kg stomach perfusion, 15 minutes) was 22.1 ± 52.0% and the “Increasing rate … ( X ± SD)” value (mice [4]; 200 mg/kg stomach perfusion, 30 minutes) was 32.9 ± 45.1 %. For the same compound, the “Increasing rate … ( X ± SD)” value (mice [4]; 200 mg/kg stomach perfusion, 60 minutes) was 40.3 ± 76.4%, the “Increasing rate … ( X ± SD)” value (mice [4]; 200 mg/kg stomach perfusion, 90 minutes) was 46.0 ± 87.4% and the “Increasing rate … ( X ± SD)” value (mice [4]; 200 mg/kg stomach perfusion, 120 minutes) was 53.6 ± 93.9%. For the same compound, the “Increasing rate … ( X ± SD)” value (mice [4]; 400 mg/kg stomach perfusion, 15 minutes) was 41.3 ± 90.2%, the “Increasing rate … ( X ± SD)” value (mice [4]; 400 mg/kg stomach perfusion, 30 minutes) was 35.2 ± 57.2 % and the “Increasing rate … ( X ± SD)” value (mice [4]; 400 mg/kg stomach perfusion, 60 minutes) was 78.8 ± 104.0 %. For the same compound, the “Increasing rate … ( X ± SD)” value (mice [4]; 400 mg/kg stomach perfusion, 90 minutes) was 59.5 ± 88.5%, the “Increasing rate … ( X ± SD)” value (mice [4]; 400 mg/kg stomach perfusion, 120 minutes) was 53.7 ± 117.0% and the “Increasing rate … ( X ± SD)” value (mice [4]; benzoylmesaconitine 100 mg/kg stomach perfusion, 15 minutes) was −0.4 ± 33.8%. For the same compound, the “Increasing rate … ( X ± SD)” value (mice [4]; benzoylmesaconitine 100 mg/kg stomach perfusion, 30 minutes) was 13.7 ± 52.3%, the “Increasing rate … ( X ± SD)” value (mice [4]; benzoylmesaconitine 100 mg/kg stomach perfusion, 60 minutes) was 64.6 ± 76.7 % and the “Increasing rate … ( X ± SD)” value (mice [4]; benzoylmesaconitine 100 mg/kg stomach perfusion, 90 minutes) was 71.1 ± 104.5%. For the same compound, the “Increasing rate … ( X ± SD)” value (mice [4]; benzoylmesaconitine 100 mg/kg stomach perfusion, 120 minutes) was 106.2 ± 116.5%.
With COC[C@@]12CCC(OC)C34C5C[C@@]6(O)C(OC(=O)c7ccccc7)C5[C@@](OC(C)=O)(C(C(OC)C31)[C@@H]4N(C)C2)[C@@H](O)C6OC (stereo partly shown) [Hypaconitine, hypaconitine] the “dose with no mice dead” value (mice [2]) was 8.19 mg/kg, the LD50 ([5]; 8.19 mg/kg, 95% of the confidence interval of LD50) was 10.9 to 15 mg/kg and the LD50 ([5]; 8.19 mg/kg, LD50, previous acute toxicology) was 12.8 mg/kg. The LD50 ([5]; LD50) was 12.8 mg/kg, the “Body twisting number ( χ ± SD)” value (Kunming breed mice [3]; [12]) was 27.6 ± 11.5 and the Pain suppression rate (Kunming breed mice [3]; [12]) was 29.77%. The “Body twisting number ( χ ± SD)” value (Kunming breed mice [3]; [13]) was 24.5 ± 9.8, the Pain suppression rate (Kunming breed mice [3]; [13]) was 37.66% and the “Body twisting number ( χ ± SD)” value (Kunming breed mice [3]; [14]) was 23.6 ± 10.9. For the same compound, the Pain suppression rate (Kunming breed mice [3]; [14]) was 39.95%, the “Body twisting number ( χ ± SD)” value (Kunming breed mice [3]; [15]) was 2.8 ± 4.5 and the Pain suppression rate (Kunming breed mice [3]; [15]) was 92.88%. The “Increasing rate … ( X ± SD)” value (mice [4]; 1 mg/kg stomach perfusion, 15 minutes) was −16.6 ± 31.9%, the “Increasing rate … ( X ± SD)” value (mice [4]; 1 mg/kg stomach perfusion, 30 minutes) was −31.9 ± 24.2% and the “Increasing rate … ( X ± SD)” value (mice [4]; 1 mg/kg stomach perfusion, 60 minutes) was −18.1 ± 34.5%. The “Increasing rate … ( X ± SD)” value (mice [4]; 1 mg/kg stomach perfusion, 90 minutes) was −13.0 ± 14.9%, the “Increasing rate … ( X ± SD)” value (mice [4]; 1 mg/kg stomach perfusion, 120 minutes) was 28.3 ± 56.3% and the “Increasing rate … ( X ± SD)” value (mice [4]; 2 mg/kg stomach perfusion, 15 minutes) was 72.4 ± 57.6 %. For the same compound, the “Increasing rate … ( X ± SD)” value (mice [4]; 2 mg/kg stomach perfusion, 30 minutes) was 36.0 ± 53.4%, the “Increasing rate … ( X ± SD)” value (mice [4]; 2 mg/kg stomach perfusion, 60 minutes) was 17.3 ± 56.1% and the “Increasing rate … ( X ± SD)” value (mice [4]; 2 mg/kg stomach perfusion, 90 minutes) was 15.3 ± 60.1%. For the same compound, the “Increasing rate … ( X ± SD)” value (mice [4]; 2 mg/kg stomach perfusion, 120 minutes) was −13.0 ± 33.1%, the “Increasing rate … ( X ± SD)” value (mice [4]; 4 mg/kg stomach perfusion, 15 minutes) was 142.7 ± 139.4 % and the “Increasing rate … ( X ± SD)” value (mice [4]; 4 mg/kg stomach perfusion, 30 minutes) was 104.1 ± 137.4 %. The “Increasing rate … ( X ± SD)” value (mice [4]; 4 mg/kg stomach perfusion, 60 minutes) was 81.7 ± 100.0 %, the “Increasing rate … ( X ± SD)” value (mice [4]; 4 mg/kg stomach perfusion, 90 minutes) was 34.4 ± 59.3 % and the “Increasing rate … ( X ± SD)” value (mice [4]; 4 mg/kg stomach perfusion, 120 minutes) was 59.1 ± 55.6 %. For the same compound, the Pain suppression rate (Kunming breed mice [6]) was 48.0%.
For CCOC(=O)C1(c2ccccc2)CCN(C)CC1 [Pethidine hydrochloride, pethidine hydrochloride, reference compound], the “Body twisting number ( χ ± SD)” value (Kunming breed mice [3]; mouse, in vivo, 40 mg/kg) was 0 ± 0 and the Pain suppression rate (Kunming breed mice [3]; mouse, in vivo, 40 mg/kg, hydrochloride) was 100%.
For COC[C@]12CN(C)[C@H]3C4C(OC)C1C3(C(OC)CC2O)C1C[C@@]2(O)C(OC(=O)c3ccccc3)C1[C@]4(OC(C)=O)[C@@H](O)C2OC (stereo partly shown) [Mesaconitine, mesaconitine], the LD50 ([5]; LD50) was 6.41 mg/kg, the “Body twisting number ( χ ± SD)” value (Kunming breed mice [3]; [16]) was 33.6 ± 11.5 and the Pain suppression rate (Kunming breed mice [3]; [16]) was 14.50%. For the same compound, the “Body twisting number ( χ ± SD)” value (Kunming breed mice [3]; [12]) was 20.0 ± 9.6^ΔΔ, the Pain suppression rate (Kunming breed mice [3]; [12]) was 49.11% and the “Body twisting number ( χ ± SD)” value (Kunming breed mice [3]; [13]) was 21.8 ± 12.6^ΔΔ. The Pain suppression rate (Kunming breed mice [3]; [13]) was 44.53%, the “Body twisting number ( χ ± SD)” value (Kunming breed mice [3]; [14]) was 19.3 ± 10.0^ΔΔ and the Pain suppression rate (Kunming breed mice [3]; [14]) was 50.89%. The Pain suppression rate (Kunming breed mice [7]) was 62.6%, the “Increasing rate … ( X ± SD)” value (mice [4]; 12.5 mg/kg stomach perfusion, 15 minutes) was 12.1 ± 45.0% and the “Increasing rate … ( X ± SD)” value (mice [4]; 12.5 mg/kg stomach perfusion, 30 minutes) was −6.3 ± 31.4%. The “Increasing rate … ( X ± SD)” value (mice [4]; 12.5 mg/kg stomach perfusion, 60 minutes) was −0.5 ± 38.7%, the “Increasing rate … ( X ± SD)” value (mice [4]; 12.5 mg/kg stomach perfusion, 90 minutes) was −11.3 ± 34.2% and the “Increasing rate … ( X ± SD)” value (mice [4]; 12.5 mg/kg stomach perfusion, 120 minutes) was 11.1 ± 38.8%. For the same compound, the “Increasing rate … ( X ± SD)” value (mice [4]; 25 mg/kg stomach perfusion, 15 minutes) was 39.7 ± 76.6%, the “Increasing rate … ( X ± SD)” value (mice [4]; 25 mg/kg stomach perfusion, 30 minutes) was 59.2 ± 146.9% and the “Increasing rate … ( X ± SD)” value (mice [4]; 25 mg/kg stomach perfusion, 60 minutes) was 37.2 ± 88.5%. For the same compound, the “Increasing rate … ( X ± SD)” value (mice [4]; 25 mg/kg stomach perfusion, 90 minutes) was 61.3 ± 82.1^Δ %, the “Increasing rate … ( X ± SD)” value (mice [4]; 25 mg/kg stomach perfusion, 120 minutes) was 80.7 ± 100.1% and the “Increasing rate … ( X ± SD)” value (mice [4]; 50 mg/kg stomach perfusion, 15 minutes) was 21.4 ± 42.9%. The “Increasing rate … ( X ± SD)” value (mice [4]; 50 mg/kg stomach perfusion, 30 minutes) was 14.4 ± 34.7%, the “Increasing rate … ( X ± SD)” value (mice [4]; 50 mg/kg stomach perfusion, 60 minutes) was 7.9 ± 37.8% and the “Increasing rate … ( X ± SD)” value (mice [4]; 50 mg/kg stomach perfusion, 90 minutes) was 30.4 ± 44.1^Δ %. For the same compound, the “Increasing rate … ( X ± SD)” value (mice [4]; 50 mg/kg stomach perfusion, 120 minutes) was 36.0 ± 42.6%, the “Increasing rate … ( X ± SD)” value (mice [4]; mesaconitine 100 mg/kg stomach perfusion, 15 minutes) was 124.8 ± 165.4% and the “Increasing rate … ( X ± SD)” value (mice [4]; mesaconitine 100 mg/kg stomach perfusion, 30 minutes) was 97.7 ± 184.6%. The “Increasing rate … ( X ± SD)” value (mice [4]; mesaconitine 100 mg/kg stomach perfusion, 60 minutes) was 64.3 ± 149.5%, the “Increasing rate … ( X ± SD)” value (mice [4]; mesaconitine 100 mg/kg stomach perfusion, 90 minutes) was 108.3 ± 105.0^ΔΔ % and the “Increasing rate … ( X ± SD)” value (mice [4]; mesaconitine 100 mg/kg stomach perfusion, 120 minutes) was 49.0 ± 52.9%.
